Experimental data as given in article PMC5298231, “The Malaria Parasite's Lactate Transporter PfFNT Is the Target of Antiplasmodial Compounds Identified in Whole Cell Phenotypic Screens” (PLoS Pathogens, 2017).
Peptide text beside a SMILES is read from it.

Tested on: erythrocytes infected with 3D7 trophozoites
Assay type: cell-based, Plasmodium falciparum
Conditions: sheet Ratio; for Ratio of metabolite abundance, Exp1_1hr: Exp1, 1hr; for Ratio of metabolite abundance, Exp1_3hr: Exp1, 3hr; for Ratio of metabolite abundance, Exp1_6hr: Exp1, 6hr; for Ratio of metabolite abundance, Exp2_1hr: Exp2, 1hr; for Ratio of metabolite abundance, Exp2_3hr: Exp2, 3hr; for Ratio of metabolite abundance, Exp2_6hr: Exp2, 6hr; for Ratio of metabolite abundance, Exp3_1hr: Exp3, 1hr; for Ratio of metabolite abundance, Exp3_3hr: Exp3, 3hr; for Ratio of metabolite abundance, Exp3_6hr: Exp3, 6hr

Row | SMILES | Ratio of metabolite abundance, Exp1_1hr | Ratio of metabolite abundance, Exp1_3hr | Ratio of metabolite abundance, Exp1_6hr | Ratio of metabolite abundance, Exp2_1hr | Ratio of metabolite abundance, Exp2_3hr | Ratio of metabolite abundance, Exp2_6hr | Ratio of metabolite abundance, Exp3_1hr | Ratio of metabolite abundance, Exp3_3hr | Ratio of metabolite abundance, Exp3_6hr
1 | N[C@@H](CCC(=O)O)C(=O)O [Glutamate] | 1.14 | 0.9816 | 0.9735 | 1.0715 | 0.9058 | 0.8408 | 1.009 | 0.9619 | 1.158
2 | O=C[C@H](O)COP(=O)(O)O [Glyceraldehyde 3-phosphate] | 0.7448 | 0.7431 | 0.4349 | 0.5818 | 0.6033 | 0.4986 | 0.4745 | 0.6544 | 0.4238
3 | O=C(CO)COP(=O)(O)O [Glycerone phosphate] | 2.2 | 2.096 | 0.8912 | 1.254 | 1.043 | 0.7007 | 1.243 | 1.057 | 0.7275
4 | CC(C)C[C@H](NC(=O)[C@@H](N)Cc1cnc[nH]1)C(=O)N[C@@H](CC(=O)O)C(=O)O [HLD] (H-His-Leu-Asp-OH) | 0.6785 | 0.3938 | 1.496 | 0.9181 | 0.5663 | 1.359 | 0.7775 | 0.6588 | 1.57
5 | CC(C)[C@H](NC(=O)[C@@H](N)Cc1c[nH]cn1)C(=O)N[C@@H](CC(=O)O)C(=O)N[C@@H](CC(=O)O)C(=O)O [HVDD] (H-HVDD-OH) | 0.5307 | 0.3298 | 0.7281 | 0.7593 | 0.3961 | 1.162 | 0.6174 | 0.4236 | 1.2463
6 | O=C(O)[C@@H]1CC(O)CN1 (stereo partly drawn) [Hydroxy-L-proline] | 1.2334 | 0.9688 | 0.6326 | 1.182 | 1.17 | 1.132 | 1.1402 | 1.1046 | 1.082
7 | O=c1[nH]cnc2c1ncn2[C@@H]1O[C@H](COP(=O)(O)OP(=O)(O)O)[C@@H](O)[C@H]1O [IDP] | 0.8853 | 1.384 | 1.314 | 0.5363 | 0.6148 | 0.824 | 1.461 | 1.458 | 1.561
8 | CC(C)C[C@H](N)C(=O)N[C@@H](CC(=O)O)C(=O)O [LD] (H-Leu-Asp-OH) | 1.295 | 0.7458 | 0.9103 | 1.486 | 1.077 | 1.185 | 1.151 | 1.268 | 1.201
9 | CC(O)C(=O)O (stereo not drawn) [Lactate] | 8.023 | 5.339 | 5.015 | 5.913 | 7.877 | 8.247 | 2.842 | 5.6661 | 4.424
10 | CC(=O)N[C@@H](CCC(=O)O)C(=O)O [N-Acetyl-glutamate] | 1.252 | 0.8243 | 0.4492 | 1.417 | 0.7877 | 0.6113 | 0.5549 | 0.2844 | 0.3771
11 | NC(=O)N[C@@H](CC(=O)O)C(=O)O [N-Carbamoyl-L-aspartate] | 0.3523 | 0.4866 | 0.4355 | 0.4532 | 0.2641 | 0.4319 | 0.3568 | 0.3426 | 0.2976
12 | NC(=O)c1ccc[n+]([C@@H]2O[C@H](COP(=O)([O-])OP(=O)(O)OC[C@H]3O[C@@H](n4cnc5c(N)ncnc54)[C@H](O)[C@@H]3O)[C@@H](O)[C@H]2O)c1 [NAD+] | 1.033 | 0.9084 | 1.09 | 0.9571 | 1.088 | 1.117 | 1.081 | 1.082 | 1.084
